# Source: PMC3618669 (Journal of molecular recognition : JMR, 2013)
# T1: CD40L (CD154) (Homo sapiens, UniProt P29965)
# T1 sequence (P29965 108-261): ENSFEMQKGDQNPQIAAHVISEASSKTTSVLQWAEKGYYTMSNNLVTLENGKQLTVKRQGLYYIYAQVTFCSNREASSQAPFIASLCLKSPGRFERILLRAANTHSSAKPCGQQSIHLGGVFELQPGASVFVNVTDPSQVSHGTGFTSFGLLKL
# Legend:
# [1] = molecular target: bovine serum albumin (BSA) (Bos taurus, UniProt P02769); test: spectrophotometric metachromatic shift titration; format: binding
# [2] = molecular target: T1, CD40L (CD154); test: spectrophotometric metachromatic shift titration; format: binding
# [3] = molecular target: the molecule itself; test: SEC
# bovine serum albumin (BSA), sequence (P02769 25-607): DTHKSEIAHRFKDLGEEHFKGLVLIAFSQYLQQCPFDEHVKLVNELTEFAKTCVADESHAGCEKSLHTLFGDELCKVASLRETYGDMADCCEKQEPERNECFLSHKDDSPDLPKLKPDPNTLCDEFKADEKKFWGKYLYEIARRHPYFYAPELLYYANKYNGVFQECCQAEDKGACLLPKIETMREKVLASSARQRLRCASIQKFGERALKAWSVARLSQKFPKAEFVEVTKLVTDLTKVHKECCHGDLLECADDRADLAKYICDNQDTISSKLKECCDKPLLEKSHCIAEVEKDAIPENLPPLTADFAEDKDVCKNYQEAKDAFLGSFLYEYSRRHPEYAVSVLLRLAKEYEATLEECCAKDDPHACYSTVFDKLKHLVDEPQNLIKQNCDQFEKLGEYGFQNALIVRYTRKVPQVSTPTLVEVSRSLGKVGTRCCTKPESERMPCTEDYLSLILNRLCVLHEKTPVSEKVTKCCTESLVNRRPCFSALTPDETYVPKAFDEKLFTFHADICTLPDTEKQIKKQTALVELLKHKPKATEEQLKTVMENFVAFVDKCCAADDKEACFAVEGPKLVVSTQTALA
Molecule,Kd [1] [µM],Kd [2] [µM],stoichiometry N [3]
"O=C1OC2(c3ccccc31)c1cc(I)c(O)c(I)c1Oc1c2cc(I)c(O)c1I [ErB, erythrosine B]",14,20,–
"recombinant human histidine-tagged extracellular CD40L (ligand, UniProt P29965 108-261, looked up) ENSFEMQKGDQNPQIAAHVISEASSKTTSVLQWAEKGYYTMSNNLVTLENGKQLTVKRQGLYYIYAQVTFCSNREASSQAPFIASLCLKSPGRFERILLRAANTHSSAKPCGQQSIHLGGVFELQPGASVFVNVTDPSQVSHGTGFTSFGLLKL",–,–,3
